Measurements taken from PubChem BioAssay AID602217 (Sanford-Burnham Center for Chemical Genomics, 2012).
Active and inactive are the calls of the source.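 Rule for the calls: active = IC50 at or below a set limit; inactive = the rest.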

Tested on: HL-1 cardiomyocytes, 2-deoxyglucose injury, ATPLite luminescence, 2 h
Assay: protection of HL-1 cardiomyocytes from 2-deoxyglucose injury, dose response, cell-based, ATPLite luminescence (AID 602217);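 note: cells kept in glucose-free DMEM during the 2-deoxyglucose injury; potency of protection where actives preserve ATP signal against 2-deoxyglucose stress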

SMILES	IC50
Cc1cccc(NC(=O)c2nc[nH]c2C(=O)NCCCCNC(=O)c2[nH]cnc2C(=O)Nc2cccc(C)c2)c1	> 79 µM (inactive)
COc1ccc(-c2ccc3c(c2)S(=O)(=O)c2cccc(C(=O)NC[C@@H]4CCCO4)c2C3=O)cc1OC	> 79 µM (inactive)
COc1cc(/C=C/c2nnc3c4ccccc4ncn23)cc(OC)c1OC	31.9 µM (inactive)
COC(=O)c1[nH]c2ccccc2c1NC(=O)CNC1CCCCC1	41 µM (inactive)
COc1ccc(-c2cc(C(=O)Nc3ccccc3N3CCOCC3)c3ccccc3n2)cc1OC	> 79 µM (inactive)
COc1cc(-c2cc(NC=O)c3ncc(-c4ccc(C(C)=O)cc4)n3c2)cc(OC)c1OC	> 79 µM (inactive)
COc1ccccc1NC(=O)c1cc(-c2cc(OC)c(OC)c(OC)c2)nc2ccccc12	14.3 µM
CC(=O)Nc1ccc(S(=O)(=O)N(Cc2cccnc2)Cc2cc3ccccc3[nH]c2=O)cc1	30.8 µM (inactive)
COc1cc(-c2cc(C(=O)NCc3ccco3)c3ccccc3n2)cc(OC)c1OC	31.6 µM (inactive)
Cc1ccc(-n2cc(-c3ccccc3)c3c(N4CCOCC4)ncnc32)cc1	7.85 µM
COc1cc(CN2C[C@@H](CO)O[C@@H](n3cnc4c(Nc5ccccc5)ncnc43)C2)cc(OC)c1OC	> 79 µM (inactive)
NC(=O)c1nsc(C(=O)N(c2ccccc2)C(C(=O)NCc2ccc(F)cc2)c2ccc(O)cc2)c1N (centres undefined)	19.8 µM
O=C(c1ccc(-c2nc3ccccc3s2)o1)N1CCN(c2ccccc2O)CC1	> 79 µM (inactive)
COc1cc(-c2cc(NC(C)=O)c3ncc(-c4ccc(F)cc4)n3c2)cc(OC)c1OC	> 79 µM (inactive)
COc1ccc(C(C(=O)NC2CCCC2)N(C(=O)c2snc(C(N)=O)c2N)c2cccc(O)c2)cc1 (centres undefined)	40.9 µM (inactive)
CC(=O)c1ccc(-c2cnc3c(NC=O)cc(-c4ccc(C(=O)NC5CC5)cc4)cn23)cc1	20 µM (inactive)
CCn1nc(C(=O)Nc2nc(-c3ccccn3)cs2)c2ccccc2c1=O	13 µM
COc1ccc(C(C(=O)NCc2ccccc2)N(Cc2ccco2)C(=O)c2snc(C(N)=O)c2N)cc1 (centres undefined)	39.5 µM (inactive)
CC(=O)Nc1cccc(-c2cc(NC(C)=O)c3ncc(-c4ccccc4)n3c2)c1	30.9 µM (inactive)
Cc1ccc(C(C(=O)NCc2ccccc2)N(Cc2ccco2)C(=O)c2snc(C(N)=O)c2N)o1 (centres undefined)	23.9 µM (inactive)
COc1cccc(-c2cnc3c(NC=O)cc(-c4cccc(NC(C)=O)c4)cn23)c1	17.6 µM
CCOc1ccccc1Nc1nnc(SCc2nnc(-c3cc(OC)c(OC)c(OC)c3)o2)s1	14.6 µM
Cc1ccc(C)c(NC(=O)C(Sc2nc3ccccc3c(=O)n2CC(C)C)c2ccccc2)c1 (centres undefined)	1.14 µM

SMILES	IC50
COc1ccc(N(CC(=O)Nc2cccc(C(C)=O)c2)S(=O)(=O)c2ccc(NC(C)=O)cc2)cc1	> 79 µM (inactive)
COc1ccc(-c2csc(NC(=O)c3cccc(N4C(=O)CCC4=O)c3)n2)cc1OC	29.9 µM (inactive)
COc1cccc(C(=O)Nc2c(C(N)=O)oc3ccccc23)c1	33.6 µM (inactive)
COc1cc(OC)cc(-c2cc3nc(C)c(CCC(=O)Nc4nc(C)cs4)c(C)n3n2)c1	> 79 µM (inactive)
COc1ccc(-c2cc(-c3nnc(COC(=O)C4CC4)o3)c3ccccc3n2)cc1OC	62.9 µM (inactive)
COc1ccc(-c2cc(C(=O)N(C)Cc3ccc(OC)c(OC)c3OC)c3ccccc3n2)cc1OC	32.1 µM (inactive)
N#Cc1c(-c2ccco2)cc(-c2cccnc2)nc1N	14.6 µM
COc1cccc(-c2cnc3c(NC(C)=O)cc(-c4cccc(NS(C)(=O)=O)c4)cn23)c1	> 79 µM (inactive)
COc1cc(-c2cc3nc(NCCOc4ccccc4)ccn3n2)cc(OC)c1OC	> 79 µM (inactive)
COc1cc(/C=N/NC(=O)NC23CC4CC(CC(C4)C2)C3)ccc1OCC(N)=O	> 79 µM (inactive)
CC(=O)c1ccc(-c2ccc(C(=O)Nc3nc(-c4ccccn4)cs3)o2)cc1	> 79 µM (inactive)
CC(C)=NNc1cnnc2ccc([N+](=O)[O-])cc12	> 79 µM (inactive)
O=C(Nc1cc(S(=O)(=O)N2CCOCC2)ccc1N1CCCCC1)c1cc(-c2ccccn2)nc2ccccc12	21 µM (inactive)
COc1cccc(-c2cnc3c(NC=O)cc(-c4cc(C)c(O)c(C)c4)cn23)c1	> 79 µM (inactive)
Cc1cc(N)n(-c2nc(-c3cccnc3)nc3ccccc23)n1	> 79 µM (inactive)
COc1ccc(-c2cc(NC(C)=O)c3ncc(-c4cccc(C(C)=O)c4)n3c2)cc1OC	> 79 µM (inactive)
COc1cc(-c2cc(C(=O)Nc3ccccc3N3CCOCC3)c3ccccc3n2)cc(OC)c1OC	13.1 µM
COCCN1Cc2cccc(C(=O)Nc3cccc(-c4nc5ccccc5[nH]4)c3)c2C1=O	8.5 µM
O=C(Nc1ccccc1)c1nc[nH]c1C(=O)NCCNC(=O)c1[nH]cnc1C(=O)Nc1ccccc1	4.82 µM
CCN(CC(=O)Nc1ccc(OC)cc1)C(=O)c1cc(-c2cccs2)nn1-c1ccccc1	17.6 µM
COc1ccc(-n2cc(-c3ccccc3)c3c(N4CCOCC4)ncnc32)cc1	4.4 µM
CC(=O)Nc1cccc(-c2cc(NC=O)c3ncc(-c4ccc(C(C)=O)cc4)n3c2)c1	23.1 µM (inactive)
COc1cccc(Nc2nc3ccccc3n3cnnc23)c1	> 79 µM (inactive)

SMILES	IC50
CCOc1ccccc1NC(=O)c1oc2ccccc2c1NC(=O)C1CCCO1 (centres undefined)	> 79 µM (inactive)
COc1ccc(Nc2nnc(SCc3cc(=O)n4ccsc4n3)s2)cc1	0.26 µM
O=C(CN(c1ccc2c(c1)OCCO2)S(=O)(=O)c1ccccc1)Nc1ccc2c(c1)OCO2	> 79 µM (inactive)
COc1ccc(-c2csc(NC(=O)c3ccc(OCC(=O)N4CCOCC4)c(OC)c3)n2)cc1OC	> 79 µM (inactive)
COc1ccc(Nc2nc(C(=O)N3CCc4cc(OC)c(OC)cc4C3)cs2)cc1	42 µM (inactive)
CCCNC(=O)c1ccc(N2CCC3(CC2)CC(c2ccccc2)=NO3)c(NC(=O)c2ccco2)c1	10.3 µM
C=CCOC(=O)C1=C[C@H](c2cn(C(C)=O)c3ccccc23)C[C@H](OCc2ccc(CO)cc2)O1	> 79 µM (inactive)
COc1ccc(COc2cc(-c3cccc(OC)c3)nc3ccc(NC(=O)c4cccnc4)cc23)cc1	5.96 µM
COc1ccccc1N1CCN(C(=O)c2ccc3nc(-c4ccco4)c(-c4ccco4)nc3c2)CC1	16.4 µM
COc1cccc(-c2cnc3c(NC=O)cc(-c4cc(OC)c(OC)c(OC)c4)cn23)c1	> 79 µM (inactive)
COc1ccc(CCNc2nc(-c3cccnc3)nc3ccccc23)cc1OC	55 µM (inactive)
CNC(=O)COC(=O)/C=C/c1cn(-c2ccccc2)nc1-c1ccc(C)o1	> 79 µM (inactive)
Cn1c(=O)c2[nH]c(NN=Cc3ccc(Br)cc3)nc2n(C)c1=O	10.2 µM
O=C(CNC(=O)c1[nH]cnc1C(=O)NC(c1ccccc1)c1ccccc1)OCc1ccccc1	> 79 µM (inactive)
COc1ccc(-c2cc3nc(-c4ccccc4)cc(N4CCN(C(C)=O)CC4)n3n2)cc1	43.7 µM (inactive)
Cc1nc(N2CCN(c3ccccn3)CC2)c2c(C)c(C(=O)Nc3ccc(F)cc3)sc2n1	> 79 µM (inactive)
Cc1ccc(C=NNc2nc3c([nH]2)c(=O)n(C)c(=O)n3C)cc1	> 79 µM (inactive)
COc1cc(/C=N/NC(=O)c2ccccc2)ccc1OS(=O)(=O)c1ccccc1	> 79 µM (inactive)
CC(=O)Nc1cc(-c2cccc(NS(C)(=O)=O)c2)cn2c(-c3cccc(C(C)=O)c3)cnc12	36.4 µM (inactive)
COc1ccc2[nH]c(=O)c(CN(Cc3cccnc3)S(=O)(=O)c3ccccc3F)cc2c1	18.2 µM
CCOc1ccc2nc(NC(=O)CN3CCC(n4nnc5cc(F)ccc54)CC3)sc2c1	9.48 µM
O=C(CCCN1C(=O)c2cccc3cccc(c23)C1=O)N1CCN(c2ccccc2O)CC1	27.4 µM (inactive)
CC(C)(C)OC(=O)C[C@@H]1C/C=C\C[C@@H](CC(=O)N[C@@H](CO)Cc2ccccc2)C(=O)NC[C@@H](c2ccccc2)OC1=O	> 79 µM (inactive)

SMILES	IC50
NC(=O)c1nsc(C(=O)N(c2ccccc2)C(C(=O)NC2CCCC2)c2ccc3ncccc3c2)c1N (centres undefined)	13.2 µM
C=CC[C@@H](CC(=O)NCCO)C(=O)NC[C@H](OC(=O)[C@@H](CC=C)Cc1ccc(F)cc1)c1ccccc1	42.7 µM (inactive)
CC(=O)c1cccc(Nc2nc3ccccc3n3cnnc23)c1	> 79 µM (inactive)
CC(C)(C)OC(=O)CNC(=O)c1[nH]cnc1C(=O)NCC(=O)OCc1ccccc1	21.7 µM (inactive)
COc1cc(-c2cc3nc(NCCc4ccc(S(N)(=O)=O)cc4)ccn3n2)cc(OC)c1OC	48.7 µM (inactive)
COc1ccc(-c2cnc3c(NC=O)cc(-c4cccc(NS(C)(=O)=O)c4)cn23)cc1OC	33.5 µM (inactive)
C[C@H](NC(=O)c1nc[nH]c1C(=O)NCC(=O)OCc1ccccc1)c1ccccc1	> 79 µM (inactive)
COCCCN(Cc1ccco1)C(=O)Cn1ncc2c([nH]c3ccccc32)c1=O	41.4 µM (inactive)
CC(=O)Nc1ccc(Nc2nc(-c3sc(NC(C)=O)nc3C)cs2)cc1	43.6 µM (inactive)
COc1cc(C(=O)N/N=C/c2ccc(OC(=O)c3ccccc3)c(OC)c2)ccc1O	37.6 µM (inactive)
Fc1ccc(-n2cc(-c3ccccc3)c3c(N4CCOCC4)ncnc32)cc1	8.35 µM
NC(=O)c1nsc(C(=O)N(Cc2ccco2)C(C(=O)NCc2ccccc2)c2ccc(O)cc2)c1N (centres undefined)	32.2 µM (inactive)
COc1ccc2c(c1OC)C(=O)N1c3ccccc3C(=O)N(c3ccccc3)C21 (centres undefined)	11 µM
CCOc1ccc(C(C(=O)NCC2CCCO2)N(C(=O)c2snc(C(N)=O)c2N)c2ccccc2F)cc1 (centres undefined)	44.3 µM (inactive)
COc1cc(/C=C/C(=O)Nc2ccc3nc4n(c(=O)c3c2)CCCC4)cc(OC)c1OC	51.5 µM (inactive)
CC(=O)c1ccc(-c2cnc3c(NC=O)cc(-c4cccc(C(=O)N(C)C)c4)cn23)cc1	> 79 µM (inactive)
COc1cc(Nc2nc3ccccc3n3nnnc23)cc(OC)c1OC	> 79 µM (inactive)
COc1ccccc1NC(=O)c1cc(-c2ccc(OC)c(OC)c2)nc2ccccc12	15.6 µM
O=[N+]([O-])c1ccc(Nc2nc(N/N=C/c3cccc(F)c3)nc(N3CCCC3)n2)cc1	> 79 µM (inactive)
COc1cc(C(=O)Nc2nc(-c3cccs3)cs2)cc(OC)c1OC	16.9 µM
